Converted amounts (≈) assume the structure as drawn. Where two headings read alike, the source gives them in different places.
Columns and labels:
Assay in all cases: Antibacterial activity (MIC), agar dilution
Type in all cases: cell-based
Aci. antitratus A-6 = conditions: 20 h
Text: (§1) The amount of bacteria inoculated was 10^4 cells per plate (10^6 cells per ml).

E. coli NIHJ JC-2 = conditions: Escherichia coli, NIHJJC2, 20 h
Text: as §1

E. coli TK-111 = conditions: Escherichia coli, TK111, 20 h
Text: as §1

Ent. cloacae IID977 = conditions: Enterobacter cloacae, IID977, 20 h
Text: as §1

Kl. pneumoniae Y-41 = conditions: Klebsiella pneumoniae, Y41, 10^6 cells per ml, 37° C., 20 hours, read-out: MIC
Text: as §1

Kl. pneumoniae Y-50 = conditions: Klebsiella pneumoniae, Y50, 20 h, 10^6 cells per ml, 37° C., read-out: MIC
Text: as §1

Pro. mirabilis T-111 = conditions: Proteus mirabilis, 37° C.
Text: as §1

Pro. morganii T-216 = conditions: Morganella morganii, 37° C.
Text: as §1

Pro. vulgaris GN3027 = conditions: Proteus vulgaris, GN3027, 20 h, Pro. vulgaris GN3027; 10^6 cells per ml; 37° C., 20 hours; read-out: MIC
Text: as §1

Ps. aeruginosa IFO3445 = conditions: Pseudomonas aeruginosa
Text: as §1

Ps. aeruginosa S-68 = conditions: Pseudomonas aeruginosa
Text: as §1

St. aureus FDA209P = conditions: Staphylococcus aureus, FDA209P, 20 h
Text: as §1

E. coli TK-3* = conditions: Escherichia coli, 20 h
Text: as §1
(§2) * Penicillinase-producing bacteria

Kl. pneumoniae Y-4* = conditions: Klebsiella pneumoniae, 20 h, Kl. pneumoniae Y-4, penicillinase-producing; 10^6 cells per ml; read-out: MIC
Text: as §1, §2

Ps. aeruginosa GN3379* = conditions: Pseudomonas aeruginosa, 20 h; Ps. aeruginosa GN3379, penicillinase-producing; 10^6 cells per ml; read-out: MIC
Text: as §1, §2

St. aureus F-137* = conditions: Staphylococcus aureus, 20 h
Text: as §1, §2

E. coli GN5482** = conditions: Escherichia coli, 20 h; E. coli GN5482, cephalospolinase-producing; 10^6 cells per ml; read-out: MIC
Text: as §1
(§3) ** Cephalospolinase-producing bacteria

Pro. vulgaris GN76** = conditions: Proteus vulgaris
Text: as §1, §3

Ps. aeruginosa GN918** = conditions: Pseudomonas aeruginosa, Ps. aeruginosa GN918, cephalospolinase-producing, 10^6 cells per ml
Text: as §1, §3

[1] = E. coli NIHJ JC-2, 10^6 cells per ml, 37° C., 20 hours, read-out: MIC
[2] = E. coli TK-111, 10^6 cells per ml, 37° C., 20 hours, read-out: MIC
[3] = T111, 10^6 cells per ml, 20 hours, read-out: MIC
[4] = T216, 10^6 cells per ml, 20 hours, read-out: MIC
[5] = St. aureus FDA209P, 10^6 cells per ml, 37° C., 20 hours, read-out: MIC
[6] = St. aureus F-137, penicillinase-producing, 10^6 cells per ml, read-out: MIC

Row | Compound | MIC (Aci. antitratus A-6) [µg/mL] | MIC (E. coli NIHJ JC-2; [1]) [µg/mL] | MIC (E. coli TK-111; [2]) [µg/mL] | MIC (Kl. pneumoniae Y-41) [µg/mL] | MIC (Kl. pneumoniae Y-50) [µg/mL] | MIC (Pro. mirabilis T-111; [3]) [µg/mL] | MIC (Pro. morganii T-216; [4]) [µg/mL] | MIC (Pro. vulgaris GN3027) [µg/mL] | MIC (St. aureus FDA209P; [5]) [µg/mL] | MIC (Kl. pneumoniae Y-4*) [µg/mL] | MIC (Ps. aeruginosa GN3379*) [µg/mL] | MIC (E. coli GN5482**) [µg/mL] | MIC (Pro. vulgaris GN76**; GN76, 20 h) [µg/mL] | MIC (Ps. aeruginosa GN918**; 20 h, read-out: MIC) [µg/mL] | MIC (Ent. cloacae IID977) [µg/mL] | MIC (Ps. aeruginosa IFO3445; IFO3445, 20 h) [µg/mL] | MIC (Ps. aeruginosa S-68; S68, 20 h) [µg/mL] | MIC (E. coli TK-3*) [µg/mL] | MIC (St. aureus F-137*; [6]) [µg/mL] | also measured
1 | CN(C)c1ccc(-c2cc(=O)c(C(=O)O)cn2-c2ccc(OS(=O)(=O)O)cc2)cc1 | 3.13 (≈ 7.27 µM) | 1.56 (≈ 3.62 µM) | 0.78 (≈ 1.81 µM) | 25 (≈ 58.1 µM) | 3.13 (≈ 7.27 µM) | 25 (≈ 58.1 µM) | 12.5 (≈ 29 µM) | 1.56 (≈ 3.62 µM) | 0.78 (≈ 1.81 µM) | 25 (≈ 58.1 µM) | 50 (≈ 116 µM) | 0.2 (≈ 0.465 µM) | 3.13 (≈ 7.27 µM) | 12.5 (≈ 29 µM) | – | – | – | – | – | MIC (Ent. cloacae IID977; Ent. cloacae IID977, 10^6 cells per ml, 37° C., 20 hours, read-out: MIC): 12.5 µg/mL (≈ 29 µM); MIC (Ps. aeruginosa IFO3445; Ps. aeruginosa IFO3445, 10^6 cells per ml, 37° C., 20 hours, read-out: MIC): 50 µg/mL (≈ 116 µM); MIC (Ps. aeruginosa S-68; S68, Ps. aeruginosa S-68, 10^6 cells per ml, 37° C., 20 hours, read-out: MIC): 25 µg/mL (≈ 58.1 µM); MIC (E. coli TK-3*; E. coli TK-3, penicillinase-producing, 10^6 cells per ml, read-out: MIC): 6.25 µg/mL (≈ 14.5 µM); MIC (St. aureus F-137*): 3.13 µg/mL (≈ 7.27 µM)
2 | O=C(O)c1cn(-c2ccc(O)cc2)c(C2CC=CCC2)cc1=O (stereo not drawn) | 6.25 (≈ 20.1 µM) | – | – | 6.25 (≈ 20.1 µM) | 1.56 (≈ 5.01 µM) | – | 3.13 (≈ 10.1 µM) | 0.39 (≈ 1.25 µM) | – | 12.5 (≈ 40.1 µM) | 25 (≈ 80.3 µM) | 0.39 (≈ 1.25 µM) | 1.56 (≈ 5.01 µM) | – | 6.25 (≈ 20.1 µM) | 12.5 (≈ 40.1 µM) | 12.5 (≈ 40.1 µM) | 6.25 (≈ 20.1 µM) | 3.13 (≈ 10.1 µM) | MIC (E. coli NIHJ JC-2): 6.25 µg/mL (≈ 20.1 µM); MIC (E. coli TK-111): 1.56 µg/mL (≈ 5.01 µM); MIC (Pro. mirabilis T-111; T111, 20 h, 10^6 cells per ml): 12.5 µg/mL (≈ 40.1 µM); MIC (St. aureus FDA209P): 1.56 µg/mL (≈ 5.01 µM); MIC (Ps. aeruginosa GN918**; GN918, 20 h): 1.56 µg/mL (≈ 5.01 µM)
3 | Cc1cc(O)ccc1-n1cc(C(=O)O)c(=O)cc1C1=CCCC1 | – | 0.78 (≈ 2.51 µM) | 0.2 (≈ 0.642 µM) | 1.56 (≈ 5.01 µM) | 0.39 (≈ 1.25 µM) | 3.13 (≈ 10.1 µM) | – | 0.1 (≈ 0.321 µM) | 0.78 (≈ 2.51 µM) | 6.25 (≈ 20.1 µM) | 25 (≈ 80.3 µM) | 0.1 (≈ 0.321 µM) | – | 3.13 (≈ 10.1 µM) | 1.56 (≈ 5.01 µM) | 6.25 (≈ 20.1 µM) | 6.25 (≈ 20.1 µM) | 1.56 (≈ 5.01 µM) | 0.78 (≈ 2.51 µM) | MIC (Aci. antitratus A-6; Aci. antitratus A-6, 10^6 cells per ml, 37° C., 20 hours, read-out: MIC): 0.78 µg/mL (≈ 2.51 µM); MIC (Pro. morganii T-216; T216, 20 h, 10^6 cells per ml): 1.56 µg/mL (≈ 5.01 µM); MIC (Pro. vulgaris GN76**; 20 h, Pro. vulgaris GN76, cephalospolinase-producing, 10^6 cells per ml, read-out: MIC): 0.78 µg/mL (≈ 2.51 µM)
